In paper PMC8831520, “Small molecule SWELL1 complex induction improves glycemic control and nonalcoholic fatty liver disease in murine Type 2 diabetes” (Nature Communications, 2022):

Key:
[1] = system: T1, SWELL1 protein in adipose tissue; assay: SWELL1 protein in adipose tissue of treated T2D mice; type: in vivo, mouse
T1 construct: from tissue; host or cells: eWAT of HFD-fed C57BL/6 mice; inguinal fat of KKA^y mice
Method: All compounds were dissolved in Kolliphor® EL (Sigma, #C5135).
Adipocytes were washed twice in ice-cold phosphate buffer saline and lysed in RIPA buffer (150 mM NaCl, 20 mM HEPES, 1% NP-40, 5 mM EDTA, pH 7.4) with proteinase/phosphatase inhibitors (Roche). The cell lysate was further sonicated in 10 s cycle intervals 2–3 times and centrifuged at 18,407×g for 30 min at 4 °C and repeated one more time to remove the excess fat. The supernatant was collected and further estimated for protein concentration using a DC protein assay kit (Bio-Rad). Fat and liver tissues were homogenized and suspended in RIPA buffer with inhibitors and further processed in a similar fashion as described above. HUVECs were also prepared in a similar fashion except the lysates were spun only once to remove the cells debris to obtain the clear supernatant. For islets, either human or mouse islets were washed twice with phosphate buffer saline (PBS) and lysed using RIPA buffer containing protease and phosphatase inhibitors. The lysate was further clarified by freezing in liquid nitrogen for about 10 s for three cycles. The supernatant was collected from the whole lysate centrifuged at 16,260×g for 20 min at 4 °C. […] The images were further analyzed for band intensities using ImageJ software. […]

T2D KKAy mice = assay: Euglycemic hyperinsulinemic clamp with tracers; type: in vivo, mouse
Method: Sterile silicone catheters (Dow-Corning) were placed into the jugular vein of mice under isoflurane anesthesia. The placed catheter was flushed with 200 U/mL heparin in saline and the free end of the catheter was directed subcutaneously via a blunted 14-gauge sterile needle and connected to a small tubing device that exited through the back of the animal. […] Hyperinsulinemic euglycemic clamps were performed on day 8 post-surgery on unrestrained, conscious mice as described elsewhere[82],[83], with some modifications. Mice were fasted for 6 h at which time insulin and glucose infusion were initiated (time 0). At 80 min prior to time 0 basal sampling was conducted, where whole-body glucose flux was traced by infusion of 0.05 μCi/min D-[3-^3H]-glucose (Perkin Elmer), after a priming 5 μCi bolus for 1 min. After the basal period, starting at time 0 D-[3-^3H]-glucose was continuously infused at the rate of 0.2 μCi/min and the infusion of insulin (Humulin, Eli Lilly) was initiated with a bolus of 80 mU/kg/min (10 µl volume for 1 min) then followed by continuous infusion of insulin at the dose of 8 mU/kg/min throughout the assay. Fifty percent dextrose (Hospira) was infused at variable rates (GIR) starting at the same time as the initiation of insulin infusion to maintain euglycemia at the targeted level of 150 mg/dL (8.3 mM). Blood glucose (BG) measurements were taken every ten minutes via tail vein sampling using a Contour glucometer (Bayer). After the mouse reached stable BG and GIR (typically, after 75 min since starting the insulin infusion; for some mice, a long time was required to achieve steady-state) a single bolus of 12 μCi of [1-^14C]-2-deoxy-D-glucose (Perkin Elmer) in 96 μl of saline was administered. Plasma samples (collected from centrifuged blood) for determination of tracers enrichment, glucose level, and insulin concentration were obtained at times −80, −20, −10, 0, and every 10 min starting at 80 min post-insulin (5 min after [1-^14C]-2-deoxy-D-glucose bolus was administered) until the conclusion of the assay at 140 min. Tissue samples were then collected from mice under isofluorane anesthesia from organs of interest (e.g., liver, heart, kidney, white adipose tissue, brown adipose tissue, gastrocnemius, soleus, etc.) for determination of 1-^14C]-2-deoxy-D-glucose tracer uptake. Plasma and tissue samples were processed as described previously. Briefly, plasma samples were deproteinized with Ba(OH)2 and ZnSO4 and dried to eliminate tritiated water. The glucose turnover rate (mg/kg-min) was calculated as the rate of tracer infusion (dpm/min) divided by the corrected plasma glucose specific activity (dpm/mg) per kg body weight of the mouse. Fluctuations from steady-state were accounted for by the use of Steele’s model. Plasma glucose was measured using the Analox GMD9 system (Analox Technologies).
Tissue samples (~30 mg each) were homogenized in 750 µl of 0.5% perchloric acid, neutralized with 10 M KOH, and centrifuged. The supernatant was then used for first measuring the abundance of total [1-^14C] signal (derived from both 1-^14C -2-deoxy-D-glucose, 1-^14C -2-deoxy-D-glucose 6 phosphate) and, following a precipitation step with 0.3 N […] and 0.3 N ZnSO4, for the measuring of non-phosphorylated 1-^14C -2-deoxy-D-glucose. Glycogen was isolated by ethanol precipitation from 30% KOH tissue lysates, as described. Insulin levels in plasma at T0 and T140 were measured using a Stellux ELISA rodent insulin kit (Alpco).

[2] = parameters: method as in PMID 3306216; conditions: cited from earlier work

Compound: CCCCC1(C2CCCC2)Cc2cc(OCCCC(=O)O)c(Cl)c(Cl)c2C1=O (centres unmarked) [SN-401, 4-((2-butyl-6,7-dichloro-2-cyclopentyl-1-oxo-2,3-dihydro-1H-inden-5-yl)oxy)butanoic acid]
- SWELL1 expression in adipose tissue ([1]; HFD-fed T2D mice, 5 mg/kg i.p.): twofold
- SWELL1 expression in adipose tissue ([1]; KKAy T2D mice, 5 mg/kg i.p. × 5 days): threefold
- glucose incorporation into glycogen in liver, adipose, and skeletal muscle (T2D KKAy mice; KKAy mice): markedly increased
- insulin-stimulated 2-DG uptake into iWAT, gWAT and myocardium (T2D KKAy mice; KKAy mice): enhanced
- glucose-infusion rate (GIR) to maintain euglycemia (T2D KKAy mice; KKAy mice, 5 mg/kg i.p. 4 days, vs vehicle): higher
- reduction of rate of glucose appearance (Ra) (T2D KKAy mice; baseline (Basal)): 40%
- suppression of rate of glucose appearance (Ra) (T2D KKAy mice; during glucose/insulin infusion (Clamp)): 75%
- diuretic activity [2]: minimal diuretic activity
